{"source": "patent US20120184769A1", "about": "“METHOD FOR ISOLATING […]-N,N-DIACETONITRILE” (BASF SE, priority 2009, published 2012)", "assay": "Solubility of MGDN in water or aqueous ammonium sulfate solution", "format": "physicochemical", "data": [{"smiles": "CC(C#N)N(CC#N)CC#N", "note": "(stereo not drawn) [MGDN, methylglycinenitrile-N,N-diacetonitrile]", "values": [{"measurement": "dissolved MGDN in the aqueous solution (emulsion formed)", "setting": "above about 60° C., emulsion of MGDN and its aqueous solution", "result": "more than 5 % by weight"}, {"measurement": "solubility of MGDN in water", "setting": "at 10° C., in water or an aqueous ammonium sulfate solution", "result": "about 0.5 % by weight"}, {"measurement": "solubility of MGDN in water", "setting": "at around 60° C.", "result": "about 5 % by weight"}]}]}
